Experimental data as given in a melting point compilation (Tetko et al.; mined from patent text by program, amines drawn as free bases though some values may be those of a salt).

Structure (SMILES)	melting point
Nc1c([N+](=O)[O-])cc(O)cc1[N+](=O)[O-]	230 °C
CCc1nc2c(C)nn(C)c2c2nc(C)cn12	182 to 183 °C
CS(=O)c1ccc(CI)cc1 (configuration not stated)	80 to 81 °C
CCOc1ncc(C(C)=O)cc1C(=O)Nc1c(C(N)=O)nn(CC2CC2)c1CC	238 to 240 °C
Cc1cc(C)c(S(=O)(=O)NCCCCNS(=O)(=O)c2c(C)cc(C)cc2C)c(C)c1	156 to 158 °C
COc1cc(C)ccc1S(=O)(=O)N1CCC(=O)C(C(c2ccccc2)c2ccccc2)C1 (configuration not stated)	130 to 131 °C
Cc1cc(O)c(O)cc1C	71 to 72 °C
CCCOc1ccc(S(=O)(=O)CC)cc1-c1nc2c(CC)nn(C[C@@H]3CCCN3C(=O)OC(C)(C)C)c2c(=O)[nH]1	170 to 172 °C
O=C1Nc2cccnc2Nc2ncccc21	> 340 °C
CC(CCC(=O)NCCCCCC(=O)NCCCCCO)C1CCC2C3C(O)CC4CC(O[Si](C)(C)C(C)(C)C)CCC4(C)C3CC(O)C12C (configuration not stated)	146 to 148 °C
C=Cc1c(F)c(F)c(F)c2c1c(=O)c(C(=O)OCC)cn2C1CC1	188 to 189 °C
CC1(C)NC(=O)OC12CCNCC2	38 to 40 °C
CCCCCCCCCCCCCCCCCCOc1ccc(OCc2ccccc2)c(C(=O)O)c1	80 to 81 °C
CN(C(N)=O)C1c2ccccc2Oc2ccccc21	199 to 202 °C
O=C(O)c1cn(C2CCN(c3c(F)cc4c(=O)c(C(=O)O)cn(C5CC5)c4c3F)C2)nn1 (configuration not stated)	222 to 225 °C
CCCC(NC(C)C(=O)N1C(C(=O)O)CC2CCCCC21)C(=O)OCC (configuration not stated)	86 to 92 °C
CCOC(=O)c1nc(C)n2c1CN=C(c1ccccc1F)c1cc(C#N)ccc1-2	272 to 274 °C
OCCn1cnc2c(O)nc3ccccc3c21	> 300 °C
CN1CC(CO)C=C2c3cccc4[nH]c(Br)c(c34)CC21 (configuration not stated)	193 °C
OC1(c2nccc3ccccc23)CCNCC1	138 to 140 °C
CC(=C1SCCCS1)c1cccc(N)c1	99 to 100 °C
CSC(=N[N+](=O)[O-])NCc1ccc(Cl)nc1	140 to 142 °C

Structure (SMILES)	melting point
COc1ccc2c(c1)S(=O)(=O)N(CCCN1CCN(c3ncccn3)CC1)C(=O)N2	178 °C
Fc1ccccc1CO[C@H]1CO[C@@H](c2ccccc2)OC1	65 to 67 °C
O=c1[nH]nc(C(F)(F)F)s1	54 to 55 °C
CN(C)C(=S)n1cnc(S(=O)(=O)CC2CCCC2)n1	65 °C
O=Cc1ccc(OCCN2CCN(c3cc(Cl)nnc3Cl)CC2)cc1	110 to 112 °C
N#Cc1ccc(-n2c(=O)cc(C(F)(F)F)n(N)c2=O)cc1O	> 230 °C
N#Cc1c(Cl)cccc1SSc1ccc([N+](=O)[O-])cc1C(Cl)(Cl)Cl	137 °C
COc1ccccc1CC(=O)c1ccc(C(C)C)c(OS(N)(=O)=O)c1C(C)C	159 to 161 °C
O=S1(=O)CCN(CCCN2CCc3sc(Nc4ncc(F)cn4)nc3-c3c[nH]nc32)CC1	272 to 273 °C
CCOC(C)OC(CCOc1ccc([N+](=O)[O-])cc1)C(F)(F)F (configuration not stated)	81 °C
COC(=O)c1cc(OC)c(OC)c([N+](=O)[O-])c1	75 to 76 °C
COc1ccc(CSCC2NC(=O)C2NC(=O)OC(C)(C)C)cc1 (configuration not stated)	120 to 123 °C
COCOCCCOn1cnc2cnc(N)nc21	80 to 81 °C
Fc1ccc2c(C3=CCN(CC4CCc5ccccc5O4)CC3)c[nH]c2c1 (configuration not stated)	160 to 161 °C
COc1cc(C)c2c(c1OC)CCC1C(=O)NC(=O)C21 (configuration not stated)	179 to 181 °C
Cc1c(C)c2c(c(C)c1O)CC[C@@](C)(CCBr)O2	120 °C
O=[N+]([O-])C=C1CN=C(c2ccccc2)c2cc(Cl)ccc2N1	184 to 186 °C
CC1(C)Oc2cc([N+](=O)[O-])sc2C(N2CCCC2=O)C1O (configuration not stated)	214 to 217 °C
CCN(CC)CCSc1nnc(SCN2C(=O)c3ccccc3S2(=O)=O)s1	93 to 94.5 °C
CCn1ncc2c(Cl)c(C#N)cnc21	100 to 102 °C
CC(=O)N[C@H]1CC[C@H](CCN2CCN(c3nccc4c3OCC4)CC2)CC1	195 °C

The next lines start with the values.

melting point	Structure (SMILES)
179 to 181 °C	FC(F)(F)c1ccc(/C=C/c2nc(COc3ccc(-c4nc(Cn5ccnn5)co4)cc3)cs2)cc1
107 to 108 °C	COC(OCCc1nc(C(C)C)c(Sc2cc(Cl)cc(Cl)c2)n1C)(c1ccccc1)c1ccccc1
92 to 93 °C	Cc1ccc(OCc2ccccc2)c2cnn(Cc3ccccc3)c12
90 to 91 °C	COC(=O)C[C@@H](CC(=O)C=Cc1c(-c2ccc(F)cc2)c(-c2ccccc2)c(C(=O)Nc2cccc(S(N)(=O)=O)c2)n1C(C)C)O[Si](C)(C)C(C)(C)C
242 to 246 °C	O=C(CNc1ccc(F)cc1)Nc1c(Cl)ccc2nc(N3CC[C@@H](O)C3)ccc12
82 to 85 °C	O=S(=O)(Cl)c1ccc(-c2ccc(F)cc2)s1
162 to 163 °C	O=[N+]([O-])c1cccc2cc(-c3ccccn3)[nH]c12
129 °C	COC(=O)CNC(=O)c1nc(Cl)c2ccccc2c1O
136 to 137 °C	CC(=O)ON=C(c1ccccc1)c1cc(C(C)(C)C)c(O)c(C(C)(C)C)c1
148 to 149 °C	COCCN(C)c1nnc(-c2ccc(-c3ccccc3)nc2)n1-c1ccccc1C#N
305 to 307 °C	Cc1cccc2c(=O)cc(C(=O)Nc3ccc(CC4SC(=O)NC4=O)cc3)oc12 (configuration not stated)
218 to 222 °C	CN(C)CCCC(=O)Nc1nc2c(s1)-c1c(cnn1-c1ccccc1)C2
132 to 133 °C	Cc1cccc(NC(=O)NC2N=C(C(C)C)c3cccc(C)c3N(CC(=O)N3CCCCCCC3)C2=O)c1 (configuration not stated)
103 to 105 °C	c1ccc(N2C(=NCCCn3ccnc3)c3cccc4cccc2c34)cc1
203 to 205 °C	O=C1c2ccccc2C(O)(c2ccc(F)cc2)C2=NC3CCCCC3N12 (configuration not stated)
195 to 197 °C	O=[N+]([O-])c1cc(Sc2ccc(Cl)cc2)[nH]c1-c1ccc(Cl)cc1
244 to 247 °C	Cn1ncnc1COc1nn2c(-c3ccccc3)nnc2cc1-c1ccc(Cl)s1
226 to 228 °C	CCOC(=O)c1cnc2c([N+](=O)[O-])c(Cl)c(F)cc2c1O
144 to 145 °C	CN(C)C=CC(=O)c1cccc(OCC(O)CN2CCN(c3ccc(Cl)cc3)CC2)c1 (configuration not stated)
168 to 170 °C	NC(=O)N1CCN(c2nn(-c3ccccc3)c3cc(F)ccc23)CC1
201 to 203 °C	COc1ccc(CSc2cc(C(=O)Nc3ccc(C#N)cc3)ccn2)cc1
95 to 96 °C	CCOC(Nc1ccccc1)(OCC)c1ccnc(C(=O)c2ccc(C)cc2)c1
176 °C	CCN(Cc1cc(Br)ccc1NCc1ccccc1)c1ccc(C(=O)O)nn1
80 to 83 °C	CCOCc1nc2c(NC(=O)c3ccccc3)nc3ccccc3c2n1CC(C)(C)NS(C)(=O)=O
148 to 149 °C	CCC1CN(Cc2ccccc2)c2c3c(nc4cccc(c24)O1)CCCC3 (configuration not stated)
174 to 175 °C	COc1cc(C=NNC(=O)c2ccc(O)c(N)c2)cc(OC)c1OCc1ccc(C(C)C)cc1
237 to 239 °C	Nc1nccc(Oc2ccc3c(C(=O)Nc4ccc(F)c(C(F)(F)F)c4)nsc3c2)n1

melting point	Structure (SMILES)
98 to 99 °C	Cc1ccc(C(=O)NCCc2ccccn2)c(Nc2ccc3[nH]ncc3c2)n1
257 °C	COc1ccc(C(=O)C2=C(O)C(=O)N(c3nnc(C(C)C)s3)C2c2ccc(C(C)(C)C)cc2)cc1 (configuration not stated)
131 to 135 °C	COc1cc(O)ccc1/C=C/C(=O)CC(=O)CCc1ccc(O)cc1
188 °C	CC1(C)CCC(C)(C)c2c(OCc3ccc(F)cc3)cc(C(O)C#Cc3ccc(C(=O)O)cc3)cc21 (configuration not stated)
81 to 82 °C	CCOC(=O)c1ccc(-c2nc(-c3ccccc3)ccc2Cl)cc1
172 to 174 °C	Cc1ccc2c(c1)c(-c1ccc(F)cc1)c(C)n2-c1ccncc1
156 to 157 °C	CCOC(=O)C(N)N=Nc1ccc(Br)cc1C(=O)c1ccccn1 (configuration not stated)
127 to 128 °C	COc1ccc(S(=O)(=O)Nc2ccccc2Nc2ccc(Cl)cc2)cc1
189 to 190 °C	COc1cc(C(=O)CCC(=O)c2cc(OC)c(OC)c(OC)c2)cc(I)c1O
182 to 185 °C	COc1ccccc1NC(=O)Nc1ccc(CC(=O)O)cc1OC
135 to 138 °C	Cc1cc(F)ccc1-c1cc(N2CCS(=O)(=O)CC2)ncc1N(C)C(=O)C(C)(C)c1cc(C(F)(F)F)cc(C(F)(F)F)c1
274 to 276 °C	Cc1[nH]c(C(=O)NCC(=O)O)c(C)c1-c1nc2ccc(C(=O)c3ccccc3)cc2[nH]1
115 to 116 °C	NC(=O)NC[C@@H]1CCCc2cc(Sc3cccc(F)c3)ccc21
172 to 177 °C	Nc1c(C(=O)CCC(=O)O)cccc1C(=O)c1ccc(Cl)cc1
170 to 171 °C	COc1ccc(C(=O)c2ccc(CC(=O)O)n2C)cc1
87 °C	Cc1cc(C)nc(NC(=O)Cc2ccc(Br)s2)c1
172 to 174 °C	COc1cc2c(c(Cl)c1Cl)C(=O)C(c1ccccc1)(c1ccccc1)C2
168 °C	COc1cc(-c2ncn(C)c2-c2ccc(C(F)(F)F)cc2)cc(OC)c1OC
185 to 186 °C	O=C(O)c1cccc(-c2ccc3c(c2)N(Cc2cccc(Cl)c2Cl)CC3)c1
106 to 109 °C	CC(C)[C@@H](CO)Nc1nc(Nc2cccc(NS(C)(=O)=O)c2)nc2[nH]ccc12
99 to 102 °C	COc1cc(Cl)cc2c1OC(COS(=O)(=O)c1ccc(C)cc1)C2 (configuration not stated)
221 to 223 °C	O=c1c(CCc2cccnc2)cc2cccnc2n1-c1cccc([N+](=O)[O-])c1
190 to 192 °C	N#CN=C(Nc1cccnc1)NC(NC(=O)c1ccc(Cl)cc1)C1CCCCC1 (configuration not stated)
72 to 73 °C	COCCNC(=O)c1cc(F)cc(-c2cccc3cc(Cc4cc(F)cc(Cl)c4)sc23)c1
116 to 122 °C	COC(=O)c1ccc(-c2ccc(OC)c3c2CC(C)(C)O3)cc1
265 °C	N#Cc1cc2c(cc1C(F)(F)F)[nH]c(=O)c(=O)n2OCc1ccccc1
202 to 204 °C	CC1(C)c2cccn2-c2cc(F)c(F)cc2N1S(=O)(=O)c1ccc(O)cc1
